Counter-ions that a name gives are not always drawn.
Columns and labels:
suspension HEK293 cells [1] = assay: FACS analysis (propidium iodide) of cell cycle phase of non-transfected suspension HEK293 cultures; type: cell-based; conditions: for cell synchronization, cell cycle phase by FACS: 24 hours with agent, non-transfected suspension HEK293 cultures, FIG. 2A
Description: Cell cycle phase of non-transfected, suspension HEK293 cultures was evaluated using fluorescence activated cell sorting (FACS). Suspension HEK293 cultures were grown in shake flasks for 24 hours with cycle arresting agents (aphidicolin, caffeine, colcemid, colchicine, flavopiridol, hydroxyurea, thymidine, trichostatin A, and vinblastine sulfate) prior to sampling for FACS analysis using propidium iodide (PI), which binds to DNA. Light intensity is indicative of the relative quantity of DNA present in a cell, which is a measure of cell phase. Forward scatter indicates the a size of a cell, while side scatter indicates the a size of intracellular components. Fluorescence of PI was measured using an excitation of 493 nm and emission of 646 nm.

suspension HEK293 cells [2] = assay: rAAV production at manufacturing scale, batch and fed batch bioreactors, suspension HEK293 cells, Payload A; type: cell-based; conditions: added 0.5 hours post-transfection
Description: Scalability of microtubule destabilizing agents (colcemid and colchicine) for production of rAAV was also assessed in batch bioreactors and larger volume fed batch bioreactors for manufacturing scale. Suspension HEK293 cells were transiently transfected with plasmids encoding Payload A flanked by an ITR on either side, at least one Rep polypeptide, at least one Cap polypeptide, and at least one helper polypeptide, colcemid was added at 0.5 hours post-transfection, and cells were cultured in 3-liter batch bioreactors or 250-liter fed bioreactors for a period of time e.g., several days prior to sampling.

Row | Compound | cell synchronization, cell cycle phase by FACS (suspension HEK293 cells [1]) | rAAV particle titer relative to controls (suspension HEK293 cells [2]; 3-liter batch bioreactors, FIG. 8A) | rAAV particle titer relative to controls (suspension HEK293 cells [2]; 250-liter fed bioreactors, FIG. 8B-8C) | cell cycle arrest, phase (suspension HEK293 cells [1]; suspension HEK293 cell cultures, FIG. 2B)
1 | CC[C@]1(O)C[C@H]2C[N@](CCc3c([nH]c4ccccc34)[C@@](C(=O)OC)(c3cc4c(cc3OC)N(C)[C@H]3[C@@](O)(C(=O)OC)[C@H](OC(C)=O)[C@]5(CC)C=CCN6CC[C@]43[C@@H]65)C2)C1 [vinblastine sulfate, vincaleukoblastine] | G2 phase | – | – | –
2 | COc1cc2c(c(OC)c1OC)-c1ccc(OC)c(=O)cc1[C@@H](NC(C)=O)CC2 [colchicine, (S)—N-(5,6,7,9-tetrahydro-1,2,3,10-tetramethoxy-9-oxobenzo[a]heptalen-7-yl)acetamide] | G2 phase | – | – | –
3 | CN[C@H]1CCc2cc(OC)c(OC)c(OC)c2-c2ccc(OC)c(=O)cc21 [colcemid, N-deacetyl-N-methylcolchicine] | G2 phase | increase | increase | G2/M phase
